Measurements as given in patent US5574173A, “Tricyclic derivatives, compositions and methods of use” (Schering Corporation, priority 1993, dated 1996).

Key:
LPS-Induced Serum TNF = assay: In vivo inhibition of LPS-induced serum TNF in mice; design: species or system mice (C57BI/6J); details: Mus musculus, 1.5 h; 25 mg/kg oral or i.p. one hour before LPS (50 μg i.p.); bled 90 min after LPS; ELISA; values may have a wide margin of error
Protocol: In addition to the in vitro test described above, the following in vivo test was also performed on several of the compounds of the present invention.
1. In Vivo Study: Inhibition of LPS-Induced Serum TNF
Mice (C57BI/6J males, 6-8 weeks of age) are dosed with the indicated compound (dissolved in CMC suspension vehicle; compounds are given orally or i.p. one hour before LPS challenge).
Mice are bled 90 min after LPS challenge.
4) Sera are analyzed for TNF content by ELISA as described in J. Immunol.

[1] = system: LPS-Induced TNF-α Production From the Murine Cell Line WEHI-265; assay: In vitro inhibition of LPS-induced TNF-α production from the murine cell line WEHI-265; format: cell-based; details: Mus musculus, WEHI-265 cells, LPS from E. coli 0111:B4, 20-24 h incubation
Protocol: This test procedure is a standard test used to determine anti-TNF-α activity and to evaluate the usefulness of said compounds for counteracting the biological effects of TNF-α.
1. In Vitro Study: Inhibition of LPS-Induced TNF-α
Production From the Murine Cell Line WEHI-265
1) Cells (obtained from cell cultures containing≤10^6 cells/ml) are suspended at 0.2×10^6 cells/ml in complete medium (RPMI1640, with 10% FCS, 10^-5 M 2-ME, 2 mM glutan-fine and 10 mM HEPES buffer) and plated in CoStar 24 well plates (1.0 ml/well).
2) Compounds are dissolved in the appropriate vehicle at 400 times the concentration to be tested, and 5 μl of compound is added to the wells.
3) LPS (from E. coli 0111:B4) is diluted to 6 μg/ml and 1.0 ml is added to wells.
4) Plates are incubated 20-24 hours in 37° CO2 incubator.
5) Supernatant fluids are collected and analyzed for TNF content as described in J. Immunol., 142:3884.

[2] = system: LPS/Galactosamine-Induced Lethality; assay: In vivo inhibition of LPS/galactosamine-induced lethality in mice; design: species or system mice (C57BI/6J); details: 25 mg/kg oral or i.p. one hour before LPS (100 ng) and d-galactosamine (8 mg) i.p.; survival at 24 hours
Protocol: This test procedure is a standard test used to determine activity against septic shock.
3. In Vivo Study: Inhibition of LPS/Galactosamine-Induced Lethality.
1) Mice (C57BI/6J males, 6-8 weeks of age) are dosed with the indicated compound (dissolved in CMC suspension vehicle; compounds are given orally or i.p. one hour before challenge with LPS and d-galactosamine).
2) Mice are challenged i.p. with a mixture of LPS (from E. coli 0111:B4; 100 ng) and d-galactosamine (8 mg).
3) Survival is determined 24 hours after challenge. See procedure published in J. Exp. Med. 165:657 (1987)

Row | Structure (SMILES) | inhibition in vivo at 25 mg/kg (LPS-Induced Serum TNF) [%] | inhibition at 10 µM [1] [%] | # DEAD/TOTAL AT 25 MG/KG [2]
1 | CNCCC1c2ccccc2CCc2ccccc21 [Compound K1] | 71 | 15 | 1/10
2 | CCCC(CN(C)C(C)=O)C1c2ccccc2COc2ccccc21 (stereo not shown) [Compound K5] | – | 46 | 10/10
3 | C=CCC(CN(C)C(C)=O)C1c2ccccc2COc2ccccc21 (stereo not shown) [IJ] | – | 34 | –
4 | C=CCC(CNC)C1c2ccccc2COc2ccccc21 (stereo not shown) [Compound IA, N-methyl-2-[6,11-dihydro-dibenzo[b,e]oxepin-11-yl]-pent-4-en-1-amine] | 44 | 54 | –
5 | C=CC(CCN(C)C)C1c2ccccc2CCc2ccccc21 (stereo not shown) [Compound IC, 3-(10,11-dihydro-5H-dibenzo[a,d]cyclohepten-5-yl)-N,N-dimethyl-4-pentenamine] | – | 46 | –
6 | CN(C)CC(O)C1c2ccccc2CCc2ccccc21 (stereo not shown) [IF] | 24 | 4 | 8/10
7 | C=CCC(CN(C)C)C1c2ccccc2CCc2ccc(Cl)cc21 (stereo not shown) [IM] | – | 50 | –
8 | CCCC(CN(C)C)C1c2ccccc2COc2ccccc21 (stereo not shown) [Compound K2] | 40 | 54 | 7/10
9 | CCCC(CN(C)C)C1c2ccccc2CCc2ccc(Cl)cc21 (stereo not shown) [Compound K6] | – | 64 | –
10 | CCCC(CNC)C1c2ccccc2COc2ccccc21 (stereo not shown) [Compound K3, N-methyl-2-[6,11-dihydro-dibenzo[b,e]oxepin-11-yl]-pentanamine] | 27 | 73 | –
11 | C=CCC(CN(C)C)C1c2ccccc2COc2ccccc21 (stereo not shown) [IH] | 30 | 23 | –
12 | CCOC(CN(C)C)C1c2ccccc2CCc2ccccc21 (stereo not drawn) [Compound IB, β-ethoxy-10,11-dihydro-N, N-dimethyl-5 H-dibenzo[a,d]cycloheptene-5-ethanamine] | 25 | 35 | 8/10
13 | CCOC(CNC)C1c2ccccc2CCc2ccccc21 (stereo not shown) [IG] | 51 | 35 | 7/9
14 | CCOC(C(=O)N(C)C)C1c2ccccc2CCc2ccccc21 (stereo not shown) [Compound IE, 2-ethoxy-2-[10,11-dihydro-5H-dibenzo[a,d]cyclohepten-5-yl]-N,N-dimethyl-acetamide] | 37 | 49 | 10/10
15 | CCCC(CN(C)C(=O)OCC)C1c2ccccc2COc2ccccc21 (stereo not shown) [Compound K4] | – | 48 | –
16 | C=CCC(CNC)C1c2ccccc2CCc2ccc(Cl)cc21 (stereo not shown) [IN] | – | 28 | –
17 | CCCC(CNC)C1c2ccccc2CCc2ccc(Cl)cc21 (stereo not shown) [Compound K7] | 58 | 39 | –
18 | C=CCC(CN(C)C(=O)OCC)C1c2ccccc2COc2ccccc21 (stereo not shown) [IK] | – | 31 | –
19 | C=CCC(CN(C)C(C)=O)C1c2ccccc2CCc2ccc(Cl)cc21 (stereo not shown) [IL] | 42 | 49 | –
